# Several values for one entry are separate records, joined by “and”; a condition that tells them apart may be missing. Equal values may be shown once.
# Test system: S. Typhimurium GFP reporter counter-screen, fluorescence, 4 h
# Assay: S. Typhimurium nonspecific reporter signal inhibition – Salmonella Typhimurium, GFP fluorescence, counter-screen for PhoP regulon inhibitor project, dose response (AID 2401);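 note: S. typhimurium with Mg-insensitive nmpC-GFP reporter grown at 10 µM Mg2+; drop in reporter fluorescence reflects general culture growth inhibition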
row,Structure (SMILES),IC50
1,Nc1ncn([C@@H]2O[C@H](CO)[C@@H](O)[C@H]2O)c(=O)n1,33.6 µM
2,COC(=O)C1C(O)C(C)C(O)C(C)(O)/C=C\C=C(/C)C(=O)Nc2c(C)c(OC(C)=O)c3c(c2O)C(=O)C(C)=C2OCOC(=C23)/C(C)=C/C(C)(O)C(O)C(C)C1O (stereo unspecified),12.6 µM
3,CN(C)c1ccc(/C=C/c2ccc3c4ccccc4ccc3[n+]2-c2ccccc2)cc1,18.8 µM
4,O=c1c(O)cccc2cc(O)c(O)c(O)c12,21.9 µM
5,CC[C@@H](C)[C@H](CNC)NC[C@@H](Cc1cccc2ccccc12)NCCc1cccc(C(F)(F)F)c1,32.3 µM
6,COc1c(N2CCN(C(=S)NC3CC4CCC3C4)C(C)C2)c(F)cc2c(=O)c(C(=O)O)cn(C3CC3)c12 (stereo unspecified),72.9 µM
7,O=C(N/N=C/c1cc([N+](=O)[O-])ccc1O)C1CC1,34 µM
8,CCCCCCCCCCOC(=O)Cn1c(COc2ccc(OC)cc2)[n+](C)c2ccccc21,21.2 µM and 22.3 µM
9,CCCC(=O)NC(c1ccc(Cl)cc1)c1ccc2cccnc2c1O (stereo unspecified),108 µM
10,CCN(CC)c1ccc(/C=N/Nc2nc3ccccc3[nH]2)c(O)c1,33.7 µM
11,Cc1ccccc1Nc1cc(C)c2c(O)cccc2n1,41.2 µM
12,O=c1[nH]cc(F)c(=O)[nH]1,20.5 µM
13,Fc1ccccc1CCNCc1ccccc1,36.2 µM
14,CN(C)[C@@H]1C(=O)C(C(N)=O)=C(O)[C@@]2(O)C(=O)C3=C(O)c4c(O)cccc4[C@@](C)(O)C3[C@H](O)C12 (stereo partly specified),0.79 µM
15,Cc1cc(C(C)(C)CC(C)(C)C)ccc1OCCOCC[N+](C)(C)Cc1ccccc1,26.9 µM
16,COc1cnc(-c2ccccn2)[nH]c1=O,35.3 µM
17,CCCCCCCCCC[N+](C)(C)CC/C=C1/c2ccccc2Sc2ccc(Cl)cc21,18.9 µM
18,CC1CCc2cc(F)cc3c(=O)c(C(=O)O)cn1c23 (stereo unspecified),20.9 µM
19,CCCCCCCCNC(C)C(O)c1ccc(SC(C)C)cc1 (stereo unspecified),75.3 µM
20,COc1ccc(OCC(O)CNc2ccc(Br)cc2)cc1 (stereo unspecified),14.3 µM
21,COc1c(N2CCN(C(=S)Nc3ccc(F)cc3)C(C)C2)c(F)cc2c(=O)c(C(=O)O)cn(C3CC3)c12 (stereo unspecified),15.7 µM
22,COc1ccc(C(=O)Cn2nc(CNc3ccc(Br)cc3)[n+]3c2CCCCC3)cc1,80.8 µM

row,Structure (SMILES),IC50
1,N=c1n(Cc2ccccc2)c2ccccc2n1CC(O)COc1ccc(Cl)cc1Cl (stereo unspecified),25.9 µM
2,CO/N=C(/C(=O)N[C@@H]1C(=O)N2C(C(=O)O)=CCS[C@H]12)c1cnc(N)s1,18.4 µM
3,c1ccc(-c2nnc(-c3ccccn3)nc2NC2CCCCC2)cc1,78.3 µM
4,Clc1cc(Br)ccc1OCCCNCc1ccccc1,75.6 µM
5,COc1ccc(OCc2n(CC(=O)OC3CC(C)CCC3C(C)C)c3ccccc3[n+]2C)cc1 (stereo unspecified),39.6 µM
6,Clc1ccc(OCCCNCc2ccccc2)c(Br)c1,46.4 µM
7,Clc1ccc(CNCc2cccs2)cc1Cl,76.1 µM
8,CCCCOc1ccc(Cc2cnc(N)nc2N)cc1,38.2 µM
9,CC[C@H]1OC(=O)C[C@@H](O)[C@H](C)[C@@H](O[C@@H]2O[C@H](C)C[C@H](N(C)C)[C@H]2O)[C@@H](CC=O)C[C@@H](C)C(=O)C=C[C@]2(C)O[C@H]2[C@@H]1C,14.2 µM
10,CS(=O)(=O)c1ccc([C@@H](O)[C@@H](CF)NC(=O)C(Cl)Cl)cc1,16.6 µM
11,Oc1cccc(C=NCc2ccccc2)c1O,144 µM
12,Cc1cc(C)c2ccc(N)nc2c1O,35.7 µM
13,Cc1nnc(N/N=C/c2ccccn2)[nH]c1=O,18 µM
14,COc1ccccc1CNCC(O)Cn1c2ccccc2c2ccccc21 (stereo unspecified),92 µM
15,O=C1C(=O)c2ccccc2-c2ccccc21,10.7 µM
16,O=[N+]([O-])c1cc(CN2CCOCC2)c2cccnc2c1O,27.2 µM
17,CN1CCN(C(c2ccc(Cl)cc2)c2cc(Cl)c3cccnc3c2O)CC1 (stereo unspecified),33.5 µM
18,CCCNC1=C(C)C(=O)C2=C(C1=O)C(COC(N)=O)[C@]1(OC)C3NC3CN21 (stereo partly specified),128 µM
19,O=C(O)CCN1C(=O)CC(N2C(=O)/C(=C/c3ccc(Cl)cc3)SC2=S)C1=O (stereo unspecified),20.6 µM
20,CN1CCN(CCCN2c3ccccc3Sc3ccc(Cl)cc32)CC1,51 µM
21,Cc1ccc(-c2csc(NC(=O)C[n+]3cc(-c4ccc(C)cc4)n4c3CCC4)n2)cc1,38.4 µM
22,NC1=NC2(CCCCC2)N=C(Nc2ccc(Br)cc2)N1,119 µM

row,Structure (SMILES),IC50
1,N=c1c2c(n(Cc3ccc(Br)cc3)c3c1CCC3)CCCC2,132 µM
2,C#CCOCCOCCOCCNc1nc(N2CCN(C(=O)CCCCCCCCCCNC(=O)[C@H]([C@@H](C)CC)n3cc(CCCCN=C(N)N)nn3)CC2)nc(N2CCN(C(=O)CCCCCCCCCCNC(=O)[C@H]([C@@H](C)CC)n3cc(CCCCN=C(N)N)nn3)CC2)n1,43.4 µM
3,CCCCCCCCCCOC(=O)Cn1c(COc2ccc(C)cc2)[n+](C)c2ccccc21,19.8 µM
4,S=c1nc(C2CCCCC2)[nH][nH]1,99 µM
5,CN(O)/C=c1/ccc2c(n1)C(=O)C=CC=2,35 µM
6,O=C1c2ccccc2NC(c2ccc(-c3ccc(Br)cc3)o2)N1O (stereo unspecified),38.7 µM
7,Cc1nc(N)c(Cc2ccc(Cl)cc2Cl)c(N)n1,40.6 µM
8,COc1ccc(CNC[C@@H](CCCCN(C)Cc2ccc(OC)cc2)N2C[C@H](c3ccccc3)N(CCc3ccc(Cl)c(Cl)c3)C(=O)C2=O)cc1,45.7 µM
9,Cc1onc(-c2ccccc2)c1C(=O)NC(=S)NNC(=O)c1ccc(O)cc1O,119 µM
10,Clc1ccc(CN2CCC(c3nc4ccc(Cl)cc4[nH]3)CC2)cc1,22.4 µM
11,CCN1/C(=C/C(C)=C/c2sc3ccccc3[n+]2CC)Sc2ccccc21,12.9 µM
12,Cc1ccc(S(=O)(=O)NC2=NCN(CCOC(=O)c3ccc([N+](=O)[O-])cc3)CN2)cc1,145 µM
13,CN1CCN(c2c(F)cc3c(=O)c(C(=O)O)cn4c3c2SCC4)CC1,8.06 µM and 8.09 µM
14,O=[N+]([O-])c1cc(/C=N/Nc2nc3ccccc3[nH]2)c(O)cc1O,18.2 µM
15,OC(c1cc(-c2ccc(C(F)(F)F)cc2)nc(C(F)(F)F)c1)C1CCCCN1 (stereo unspecified),29.5 µM
16,CC1(C)CC(=O)C(C(=O)/C=C/NCCc2ccccc2)C(=O)C1,122 µM
17,C#CCOCCOCCOCCNc1nc(N2CCN(C(=O)CCCCCCCCCCNC(=O)[C@H](CCCCN)n3cc(C[C@@H](C)CC)nn3)CC2)nc(N2CCN(C(=O)CCCCCCCCCCNC(=O)[C@H](CCCN=C(N)N)n3cc(C[C@@H](C)CC)nn3)CC2)n1,78 µM
18,CCC(C)(C)c1ccc(OCCCC[n+]2ccccc2)c(C(C)(C)CC)c1,34.9 µM
19,CCCCCCCCCCCCCCCC[n+]1cccc(C(=O)N(CC)CC)c1,20.1 µM
20,CCCCCCCCCn1c2c(c(=N)c3c1CCC3)CCCC2,31.3 µM
21,Oc1cccc2ccc(Nc3ccccn3)nc12,10.7 µM
22,COc1ccc(Nc2cc(C)nc(NCc3ccccc3)n2)cc1,111 µM

row,Structure (SMILES),IC50
1,NC1=NC[C@H](Cc2ccc(O)cc2)N1CCC12CC3CC(CC(C3)C1)C2,70.7 µM
2,O=C(c1ccc(F)cc1)C(CN1CCOCC1)c1ccccc1 (stereo unspecified),144 µM
3,O=[N+]([O-])c1cc(Cl)c2cccnc2c1O,1.62 µM
4,Cc1cccc(Nc2cc(C)c3c(O)cccc3n2)c1C,38.8 µM
5,Cc1cc(NC(c2cccnc2)c2ccc3cccnc3c2O)no1 (stereo unspecified),105 µM
6,C=CCNc1ncnc2c1[nH]c1ccccc12,118 µM
7,Cc1cc(C)c(NC(=O)c2cn3c4c(c(N5CCN(C)CC5)c(F)cc4c2=O)OCC3C)c(C)c1 (stereo unspecified),34.2 µM
8,Nc1nnc(-c2cccc(Cl)c2Cl)c(N)n1,60.5 µM
9,Nc1cc2nsnc2cc1Br,77.3 µM
10,Cc1ccc(S(=O)(=O)/N=C2/C=C(Sc3ncn[nH]3)C(=O)c3ccccc32)cc1,32.6 µM
11,COc1c(N2CCNC(C)C2)c(F)cc2c(=O)c(C(=O)O)cn(C3CC3)c12 (stereo unspecified),1.05 µM
12,CC(Cc1ccccc1)NCc1ccccc1O (stereo unspecified),28.2 µM
13,CN1/C(=C\C=C\C2=[N+](C)c3ccc4ccccc4c3C2(C)C)C(C)(C)c2ccccc21,9.42 µM
14,Cc1ccc(C(C[N+](=O)[O-])c2c(-c3ccccc3O)[nH][nH]c2=O)cc1 (stereo unspecified),14.9 µM
15,CCOC(=O)N1CCN(C(=O)c2cn(CC)c3cc(N4CCN(C)CC4)c(F)cc3c2=O)CC1,12 µM
16,Cc1cccc(Nc2c3c(nc4ccccc24)CCC3)c1,109 µM
17,CC(C)(C)/C(O)=C/c1nc2cc(Cl)ccc2oc1=O,65.1 µM
18,O=C(N/N=C/c1sc2ccccc2c1O)c1cccc2ccccc12,23.6 µM
19,C[C@H]1c2cccc(O)c2C(O)=C2C(=O)[C@]3(O)C(O)=C(C(N)=O)C(=O)[C@@H](N(C)C)C3[C@@H](O)C21 (stereo partly specified),2.3 µM
20,O=C(N/N=C/c1ccc([N+](=O)[O-])s1)C(O)c1ccccc1 (stereo unspecified),49 µM
21,COc1ccc(CN2C(=O)Cc3c2nc(N)c2c(N)nc(N4CCCCC4)c(C#N)c32)cc1,120 µM
22,O=C(C[n+]1cc(-c2ccc(Cl)c(Cl)c2)n2c1CCC2)N1c2ccccc2Sc2ccccc21,49 µM

row,Structure (SMILES),IC50
1,CN(Cc1ccccc1)CC(O)COc1ccc(CNCc2ccc(Cl)s2)cc1 (stereo unspecified),91.9 µM
2,CCCCC(CC)CN=C(N)NC(N)=NCCCCCCN=C(N)NC(N)=NCC(CC)CCCC (stereo unspecified),5.51 µM
3,CCCCCOc1ccc(CSC(=N)N)cc1[N+](=O)[O-],46.8 µM
4,O=C(c1cccs1)c1no[n+]([O-])c1C(=O)c1cccs1,39.1 µM
5,O=C(N/N=C/c1cccs1)c1cccs1,67.8 µM
6,CCCC(=O)NC(c1ccccc1)c1ccc2cccnc2c1O (stereo unspecified),40 µM
7,Oc1c(C(Nc2nc3ccccc3s2)c2ccco2)ccc2cccnc12 (stereo unspecified),104 µM
8,O=C(O)c1cc(O)c2c(c1)[C@@H]([C@H]1c3cc(C(=O)O)cc(O)c3C(=O)c3c(O[C@@H]4O[C@H](CO)[C@@H](O)[C@H](O)[C@H]4O)cccc31)c1cccc(OC3O[C@H](CO)[C@@H](O)[C@H](O)[C@H]3O)c1C2=O (stereo partly specified),83.6 µM
9,CN(C)c1ccc(O)c2c1CC1CC3[C@@H](N(C)C)C(=O)C(C(N)=O)=C(O)[C@]3(O)C(=O)C1=C2O (stereo partly specified),4.76 µM
10,Cc1ccnc(NC(c2cccnc2)c2ccc3cccnc3c2O)c1 (stereo unspecified),22.3 µM
11,O=C(C[n+]1cc(-c2ccc(Cl)cc2)n2c1CCC2)Nc1nc(-c2ccccc2)cs1,84 µM
12,Cc1cc(C)n(-c2nc(NCCN(C)C)c3c4c(sc3n2)CCCC4)n1,92.1 µM
13,NC(=NCCCCCCN=C(N)/N=C(\N)Nc1ccc(Cl)cc1)/N=C(\N)Nc1ccc(Cl)cc1,5.5 µM and 9.19 µM and 14.6 µM
14,O=[N+]([O-])c1ccc(O)c(/C=N/Nc2ccccn2)c1,13.9 µM
15,c1cnc2c(c1)ccc1cccnc12,24.5 µM
16,Cc1ccc(Cn2c(=N)n(CC(=O)c3ccc([N+](=O)[O-])cc3)c3ccccc32)cc1,103 µM
17,CCCc1cnc(NCCNCC(O)COc2ccc(Cl)c(Cl)c2)nc1 (stereo unspecified),40.3 µM
18,CC(=O)NC(c1cccs1)c1cc([N+](=O)[O-])c2cccnc2c1O (stereo unspecified),30.8 µM

# From PubChem BioAssay AID2401 (Southern Research Specialized Biocontainment Screening …, 2010)
